From patent publication US4156016A, “Indole compounds and process for their preparation” (Hoffmann-La Roche Inc., priority 1977, dated 1979)
pIC50: −log10 of the molar value. Like-named read-outs stand apart in the source and are kept apart here.

Legend:
[1] = test system: arachidonic acid induced diarrhea; assay: Arachidonic acid diarrhea prevention (mice); assay type: in vivo, Carworth Farm CF-1 male mice; settings: Mus musculus, po
Description: Carworth Farm CF-1 male mice weighing 18-20 grams were administered the test compound by either the oral or intraperitoneal route one hour prior to the intraperitoneal administration of 4 mg/kg of arachidonic acid (Hoffmann-La Roche Inc.). […] The diarrhea was graded on paper towels as follows: 0=solid pellet or no bowel movement; 1=slightly soft pellet with little or no wet ring formation; 2=moderately soft pellet with definite wet ring formation; 3=soft pellet with large wet ring formation; and 4=amorphous pellet with very large wet ring formation.
The calculation of the ED50 was made according to the method of Miller et al., Proc. Soc.

[2] = test system: serum PGF2α; assay: Inhibition of prostaglandin formation: serum PGF2α by radioimmunoassay (rats); assay type: in vivo, male rats; settings: for ED50: Rattus norvegicus, 1 h, rats
[3] = molecular target: T1, Prostaglandin synthetase (Ovis aries, UniProt P05979); assay: Prostaglandin synthetase inhibition; assay type: biochemical; settings: read-out: PG synthetase IC50
T1 construct: from tissue
T1 sequence (P05979 25-600): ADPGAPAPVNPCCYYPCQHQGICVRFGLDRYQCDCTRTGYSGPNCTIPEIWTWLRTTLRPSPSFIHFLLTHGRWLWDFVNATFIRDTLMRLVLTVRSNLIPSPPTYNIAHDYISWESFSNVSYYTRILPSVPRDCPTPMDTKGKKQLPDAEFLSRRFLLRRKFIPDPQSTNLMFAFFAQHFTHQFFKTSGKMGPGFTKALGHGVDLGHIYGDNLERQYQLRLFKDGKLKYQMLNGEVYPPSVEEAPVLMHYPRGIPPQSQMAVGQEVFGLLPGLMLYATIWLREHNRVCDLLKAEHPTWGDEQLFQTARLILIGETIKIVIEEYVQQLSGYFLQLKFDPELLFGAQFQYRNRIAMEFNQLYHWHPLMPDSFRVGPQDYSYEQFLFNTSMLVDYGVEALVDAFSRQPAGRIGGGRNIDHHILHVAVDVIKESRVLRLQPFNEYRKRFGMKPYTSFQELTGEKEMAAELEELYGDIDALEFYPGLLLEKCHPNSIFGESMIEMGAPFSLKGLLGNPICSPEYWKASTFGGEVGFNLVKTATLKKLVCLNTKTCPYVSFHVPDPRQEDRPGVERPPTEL

[4] = test system: ADP induced aggregation; assay: Inhibition of ADP-induced platelet aggregation (second wave) in human platelet-rich plasma; assay type: cell-based; settings: for inhibition at 2.5 µM / inhibition at 5 µM / inhibition at 10 µM / inhibition at 20 µM / inhibition at 50 µM: Homo sapiens, Platelet, read-out: Percent Inhibition
Description: Venous blood was collected from human volunteers in siliconized 20 ml. […] Platelet rich plasma (PRP) was separated from the red blood cells by centrifugation at 180×g for 15 minutes at room temperature. Platelet poor plasma (PPP) was prepared by centrifuging PRP at 1000×g for 2 minutes.
Techniques established by Born et al., J. Physiol. […] PRP (1 ml.) was added to a siliconized cuvette containing a siliconized stirring bar and placed in a densitometer maintained at 37° C. and stirred at 1000 RPM. Various concentrations of test compounds were added in 50 μl of saline and incubated with PRP for 5 minutes. Aggregation was initiated by the addition of sufficient concentrations of ADP (Sigma Chemical Co.), epinephrine HCl (Parke, Davis & Co., Detroit, Michigan), or human mammary gland collagen (obtained from Roosevelt Hospital, N.Y.) to give about 60% of maximum aggregation response. The light transmission through PPP was used to determine maximum response. The percent inhibition of aggregation caused by the drug was calculated from the strip chart recordings at the point of maximum collagen response.

[5] = test system: Collagen-Induced Platelet Aggregation; assay: Effect of compounds in whole blood: collagen-induced platelet aggregation after incubation in whole blood; assay type: cell-based, human; settings: for Δ light transmission: mean of duplicate determinations; for inhibition at 1 µM / inhibition at 5 µM / inhibition at 10 µM / inhibition at 25 µM / inhibition at 50 µM / inhibition at 100 µM: read-out: percent inhibition
Description: Aliquots of citrated human blood (10 ml.) were exposed to different concentrations of the "nitrile" by mechanically shaking at room temperature for 5 minutes.

[6] = test system: human blood-platelet aggregation; assay: Inhibition of human blood-platelet aggregation (general statement)
[7] = test system: prostaglandin formation; assay: Inhibition of prostaglandin formation (general statement)
[8] = Ulcerogenicity (general statement)
[9] = Toxicity (general statement)

SMILES: N#Cc1[nH]c2ccc(C(O)(C(F)(F)F)C(F)(F)F)cc2c1-c1ccccc1 [nitrile, 3-Phenyl-5-[2,2,2-trifluoro-1-hydroxy-1-(trifluoromethyl)ethyl]indole-2-carbonitrile]
- ED50 [1]: 5 mg/kg
- serum PGF2α ([2]; 1 mg/kg i.p., ± SE): 27 ± 2.9 ng/mL
- serum PGF2α ([2]; 1 mg/kg p.o., ± SE): 28 ± 4.6 ng/mL
- serum PGF2α ([2]; 3 mg/kg i.p., ± SE, p <0.05): 18 ± 1.5 ng/mL
- serum PGF2α ([2]; 3 mg/kg p.o., ± SE): 19 ± 4.2 ng/mL
- serum PGF2α ([2]; 10 mg/kg i.p., ± SE, p <0.01): 18 ± 2.9 ng/mL
- serum PGF2α ([2]; 10 mg/kg p.o., ± SE, p <0.001): 12 ± 2.4 ng/mL
- serum PGF2α ([2]; 30 mg/kg i.p., ± SE, p <0.001): 2 ± 1.6 ng/mL
- serum PGF2α ([2]; 30 mg/kg p.o.): 0 ng/mL
- serum PGF2α ([2]; 100 mg/kg i.p.): 0 ng/mL
- serum PGF2α ([2]; 100 mg/kg p.o.): 0 ng/mL
- ED50 ([2]; ip): 15 mg/kg
- ED50 ([2]; po): 10 mg/kg
- pIC50 [3]: 6.30
- Δ light transmission ([4]; 2.5 μM, Expt. I): 60 units
- Δ light transmission ([4]; 2.5 μM, Expt. II): 54 units
- Δ light transmission ([4]; 5 μM, Expt. I): 50 units
- Δ light transmission ([4]; 5 μM, Expt. II): 44 units
- Δ light transmission ([4]; 10 μM, Expt. I): 11 units
- Δ light transmission ([4]; 10 μM, Expt. II): 14 units
- Δ light transmission ([4]; 20 μM, Expt. I): 0 units
- Δ light transmission ([4]; 20 μM, Expt. II): 0 units
- Δ light transmission ([4]; 50 μM, Expt. I): 0 units
- Δ light transmission ([4]; 50 μM, Expt. II): 0 units
- inhibition at 2.5 µM ([4]; 2.5 μM, Expt. I): 0%
- inhibition at 2.5 µM ([4]; 2.5 μM, Expt. II): 1.8%
- inhibition at 5 µM ([4]; 5 μM, Expt. I): 16.7%
- inhibition at 5 µM ([4]; 5 μM, Expt. II): 20%
- inhibition at 10 µM ([4]; 10 μM, Expt. I): 18.6%
- inhibition at 10 µM ([4]; 10 μM, Expt. II): 74.5%
- inhibition at 20 µM ([4]; 20 μM, Expt. I): 100%
- inhibition at 20 µM ([4]; 20 μM, Expt. II): 100%
- inhibition at 50 µM ([4]; 50 μM, Expt. I): 100%
- inhibition at 50 µM ([4]; 50 μM, Expt. II): 100%
- pIC50 ([4]; incubation in human citrated platelet-rich plasma): 5.15
- Δ light transmission ([5]; 1 μM, Expt. I): 18 units
- Δ light transmission ([5]; 1 μM, Expt. II): 19 units
- Δ light transmission ([5]; 1 μM, Expt. III): 27 units
- Δ light transmission ([5]; 5 μM, Expt. I): 14 units
- Δ light transmission ([5]; 5 μM, Expt. II): 15 units
- Δ light transmission ([5]; 5 μM, Expt. III): 20 units
- Δ light transmission ([5]; 10 μM, Expt. I): 13 units
- Δ light transmission ([5]; 10 μM, Expt. II): 13 units
- Δ light transmission ([5]; 10 μM, Expt. III): 17 units
- Δ light transmission ([5]; 25 μM, Expt. I): 9 units
- Δ light transmission ([5]; 25 μM, Expt. II): 10 units
- Δ light transmission ([5]; 25 μM, Expt. III): 13 units
- Δ light transmission ([5]; 50 μM, Expt. I): 8 units
- Δ light transmission ([5]; 50 μM, Expt. II): 9 units
- Δ light transmission ([5]; 50 μM, Expt. III): 10 units
- Δ light transmission ([5]; 100 μM, Expt. I): 4 units
- Δ light transmission ([5]; 100 μM, Expt. II): 4 units
- Δ light transmission ([5]; 100 μM, Expt. III): 6 units
- inhibition at 1 µM ([5]; Homo sapiens, Platelet, 1 μM, Expt. I): 10%
- inhibition at 1 µM ([5]; Homo sapiens, Platelet, 1 μM, Expt. II): 9.5%
- inhibition at 1 µM ([5]; Homo sapiens, Platelet, 1 μM, Expt. III): 10%
- inhibition at 5 µM ([5]; Homo sapiens, Platelet, 5 μM, Expt. I): 30%
- inhibition at 5 µM ([5]; Homo sapiens, Platelet, 5 μM, Expt. II): 29%
- inhibition at 5 µM ([5]; Homo sapiens, Platelet, 5 μM, Expt. III): 33%
- inhibition at 10 µM ([5]; Homo sapiens, Platelet, 10 μM, Expt. I): 35%
- inhibition at 10 µM ([5]; Homo sapiens, Platelet, 10 μM, Expt. II): 38%
- inhibition at 10 µM ([5]; Homo sapiens, Platelet, 10 μM, Expt. III): 43%
- inhibition at 25 µM ([5]; Homo sapiens, Platelet, 25 μM, Expt. I): 55%
- inhibition at 25 µM ([5]; Homo sapiens, Platelet, 25 μM, Expt. II): 52%
- inhibition at 25 µM ([5]; Homo sapiens, Platelet, 25 μM, Expt. III): 57%
- inhibition at 50 µM ([5]; Homo sapiens, Platelet, 50 μM, Expt. I): 60%
- inhibition at 50 µM ([5]; Homo sapiens, Platelet, 50 μM, Expt. II): 57%
- inhibition at 50 µM ([5]; Homo sapiens, Platelet, 50 μM, Expt. III): 67%
- inhibition at 100 µM ([5]; Homo sapiens, Platelet, 100 μM, Expt. I): 80%
- inhibition at 100 µM ([5]; Homo sapiens, Platelet, 100 μM, Expt. II): 81%
- inhibition at 100 µM ([5]; Homo sapiens, Platelet, 100 μM, Expt. III): 80%
- pIC50 ([5]; Homo sapiens, Platelet, incubation in whole blood): 4.60
- inhibition of human blood-platelet aggregation (in words) [6]: inhibit prostaglandin formation and human blood-platelet aggregation
- inhibition of prostaglandin formation (in words) [7]: inhibit prostaglandin formation
- ulcerogenicity (in words) [8]: non-ulcerogenic
- toxicity (in words) [9]: low in toxicity
